{"source": "patent US20140109520A1", "about": "“BEVERAGE FILLING METHOD AND APPARATUS” (DAI NIPPON PRINTING CO., LTD., priority 2008, published 2014)", "key": {"[1]": {"settings": "for Remaining hydrogen peroxide: 500 mL PET bottle, 30 μL hydrogen peroxide"}, "[2]": {"system": "bacteria adhering to the inner surfaces of the preforms", "settings": "for Number of bacteria adhering on inner surface of preform 10^3: 10^3 bacteria; for Number of bacteria adhering on inner surface of preform 10^4: 10^4 bacteria; for Number of bacteria adhering on inner surface of preform 10^5: 10^5 bacteria", "text": "(§1) In the column “No” in the above Table 2, A1, A2, A3, B1, B2 denotes bottle sample numbers, in which A1, A2 and A3 correspond to the conventional sterilization method, and B1 and B2 correspond to the third embodiment of the present invention mentioned above."}, "B. subtilis spore": {"system": "B. subtilis spore", "text": "Effects attained by the container sterilization method of the present invention will be compared with effects attained by the conventional sterilization method as in the following Table 2.\nas §1\nThe column “Log Reduction” represents LRV (Logarithmic Reduction Value) as to B. subtilis spore."}, "[3]": {"system": "B. subtilis var. niger ATCC9372", "text": "Evaluation method to the measurement was as follows.\nSterilization Effects (Log Reduction)=Log(Number of Adhering Bacteria/Number of Survived Bacteria)\nIndex Bacteria: B. subtilis var. niger ATCC9372"}, "[4]": {"settings": "0.5 sec from hydrogen peroxide spray to air-rinse"}, "[5]": {"settings": "2 sec from hydrogen peroxide spray to air-rinse"}, "[6]": {"settings": "5 sec from hydrogen peroxide spray to air-rinse"}, "[7]": {"settings": "bottle sample A2, conventional method, H2O2 mist 100 μL/bottle, H2O2 in air 0.0 mg/L"}, "[8]": {"settings": "bottle sample A3, conventional method, H2O2 mist 150 μL/bottle, H2O2 in air 0.0 mg/L"}, "[9]": {"settings": "bottle sample B1, third embodiment, H2O2 mist 50 μL/bottle, H2O2 in air 3.3 mg/L"}, "[10]": {"settings": "bottle sample B2, third embodiment, H2O2 mist 50 μL/bottle, H2O2 in air 5 mg/L"}, "[11]": {"settings": "bottle sample A1, conventional method, H2O2 mist 50 μL/bottle, H2O2 in air 0.0 mg/L, using amount 170 mL/min"}, "[12]": {"settings": "bottle sample A2, conventional method, H2O2 mist 100 μL/bottle, H2O2 in air 0.0 mg/L, using amount 340 mL/min"}, "[13]": {"settings": "bottle sample B1, third embodiment, H2O2 mist 50 μL/bottle, H2O2 in air 3.3 mg/L, using amount 230 mL/min"}}, "note": "Read-outs that look alike come from different tables or passages of the source.", "data": [{"smiles": "OO", "note": "[hydrogen peroxide]", "values": [{"measurement": "Judgment (remaining hydrogen peroxide)", "setting": "[1]; [4]", "value": "∘"}, {"measurement": "Remaining hydrogen peroxide", "setting": "[1]; [4]", "value": 0.3, "unit": "ppm"}, {"measurement": "Judgment (remaining hydrogen peroxide)", "setting": "[1]; [5]", "value": "∘"}, {"measurement": "Remaining hydrogen peroxide", "setting": "[1]; [6]", "value": 0.9, "unit": "ppm"}, {"measurement": "Number of bacteria adhering on inner surface of preform 10^3", "setting": "[2]; [7]", "value": "◯◯◯"}, {"measurement": "Number of bacteria adhering on inner surface of preform 10^4", "setting": "[2]; [7]", "value": "◯◯◯"}, {"measurement": "Number of bacteria adhering on inner surface of preform 10^5", "setting": "[2]; [7]", "value": "◯◯[…]"}, {"measurement": "Number of bacteria adhering on inner surface of preform 10^3", "setting": "[2]; [8]", "value": "◯◯◯"}, {"measurement": "Number of bacteria adhering on inner surface of preform 10^4", "setting": "[2]; [8]", "value": "◯◯◯"}, {"measurement": "Number of bacteria adhering on inner surface of preform 10^5", "setting": "[2]; [8]", "value": "◯◯◯"}, {"measurement": "Number of bacteria adhering on inner surface of preform 10^3", "setting": "[2]; [9]", "value": "◯◯◯"}, {"measurement": "Number of bacteria adhering on inner surface of preform 10^4", "setting": "[2]; [9]", "value": "◯◯◯"}, {"measurement": "Number of bacteria adhering on inner surface of preform 10^5", "setting": "[2]; [9]", "value": "◯◯[…]"}, {"measurement": "Number of bacteria adhering on inner surface of preform 10^3", "setting": "[2]; [10]", "value": "◯◯◯"}, {"measurement": "Number of bacteria adhering on inner surface of preform 10^4", "setting": "[2]; [10]", "value": "◯◯◯"}, {"measurement": "Number of bacteria adhering on inner surface of preform 10^5", "setting": "[2]; [10]", "value": "◯◯◯"}, {"measurement": "density of the hydrogen peroxide adhering to the surface of the bottle", "setting": "bottle temperature 65° C.", "value": "~80", "unit": "weight %"}, {"measurement": "density of the hydrogen peroxide adhering to the surface of the bottle", "setting": "bottle temperature 80° C.", "value": "~90", "unit": "weight %"}, {"measurement": "Judgment Sterilization performance", "setting": "B. subtilis spore; [11]", "value": "X (LVR being less than 6)"}, {"measurement": "Log reduction", "setting": "B. subtilis spore; [11]", "value": "<3.4"}, {"measurement": "Judgment Sterilization performance", "setting": "B. subtilis spore; [12]", "value": "◯ (shows LRV being 6)"}, {"measurement": "Log reduction", "setting": "B. subtilis spore; [12]", "value": 6.0}, {"measurement": "Log reduction", "setting": "B. subtilis spore; bottle sample A3, conventional method, H2O2 mist 150 μL/bottle, H2O2 in air 0.0 mg/L, using amount 510 mL/min", "value": ">6.0"}, {"measurement": "Judgment Sterilization performance", "setting": "B. subtilis spore; [13]", "value": "◯ (shows LRV being 6)"}, {"measurement": "Log reduction", "setting": "B. subtilis spore; [13]", "value": 6}, {"measurement": "Log reduction", "setting": "B. subtilis spore; bottle sample B2, third embodiment, H2O2 mist 50 μL/bottle, H2O2 in air 5 mg/L, using amount 280 mL/min", "value": ">6.0"}, {"measurement": "sterilization effect LRV", "setting": "B. subtilis spore; conventional method, hydrogen peroxide of 340 mL/min. to 510 mL/min.", "value": 6}, {"measurement": "sterilization effect LRV", "setting": "B. subtilis spore; method of the present invention, hydrogen peroxide of 230 mL/min. to 260 mL/min.", "value": 6}, {"measurement": "Judgment (log reduction)", "setting": "[3]; [5]", "value": "∘"}, {"measurement": "Judgment (log reduction)", "setting": "[3]; [6]", "value": "∘"}]}]}
